Several values for one entry are separate records, joined by “and”; a condition that tells them apart may be missing. Identical values can stand only once. Like-named read-outs stand apart in the source and are kept apart here.
Experiments:
[1] = Phase I single-dose study, moderate hepatic impairment versus normal hepatic function; assay type: in vivo, human; conditions: for AUC(0-inf) / AUC(0-t) / Cmax / Vd/F / half-life / Tmax / CL renal: both sexes, human, oral, 450 mg; for AUC(0-inf) / AUC(0-t) / Cmax / Vd/F / half-life / Tmax: plasma; for half-life: read-out: Elimination Half-life (t1/2) (converted); for Tmax: median; for CL renal: urine, read-out: CLr, renal clearance (converted)
Experimental: A phase I, open-label, parallel-group, single-dose study was conducted to evaluate the pharmacokinetics (PK) of 450 mg vadadustat administered in adults with moderate hepatic impairment (Child-Pugh Class B) versus those with normal hepatic function. The pharmacokinetic (pK) parameters of Compound 1 were characterized. Safety and tolerability were assessed throughout the study.
Inclusion criteria: participants were male and female adults between 18 and 70 years of age, with either normal hepatic function or moderate hepatic impairment based on the Child-Pugh classification (Child-Pugh Class B [score 7-9]). Moderate hepatic impairment was defined by the presence and severity of elevated bilirubin levels, decreased serum albumin levels, elevated international normalized ratios >2.20, ascites, and hepatic encephalopathy.
Pharmacokinetics. […] PK parameters Ae0-72, Fe %0-72, and CL, were estimated from the urine concentration-time profiles.
8 subjects with hepatic impairment and 8 matched subjects with normal hepatic function were enrolled in the study. All subjects received a single oral 450-mg dose of vadadustat on Day 1 and were required to fast for at least 10 hours before dosing and for 4 hours after dosing.

[2] = Influence of meal on pharmacokinetics, single 450 mg dose; conditions: male, human, in vivo, oral
Experimental: The median tmax of this drug was prolonged by postprandial administration for about 1.5 hours as compared with fasting.

[3] = single 450 mg, Moderate Hepatic Impairment, mean ± SD
[4] = single 450 mg, Moderate Hepatic Impairment
[5] = single 450 mg, Normal Liver Function, mean ± SD
[6] = single 450 mg, Normal Liver Function
[7] = After Meal, healthy adult males

SMILES: O=C(O)CNC(=O)c1ncc(-c2cccc(Cl)c2)cc1O [Compound 1, {[5-(3-chlorophenyl)-3-hydroxypyridine-2-carbonyl]amino}acetic acid]
- AUC(0-inf) ([1]; AUC0-inf, Geometric LSM, Total Compound 1, single 450 mg, Moderate Hepatic Impairment): 414 µg·h/mL
- AUC(0-inf) ([1]; AUC0-inf, Geometric LSM, Total Compound 1, single 450 mg, Normal Liver Function): 394 µg·h/mL
- AUC(0-t) ([1]; AUC0-last, Geometric LSM, Total Compound 1, single 450 mg, Moderate Hepatic Impairment): 410 µg·h/mL
- AUC(0-t) ([1]; AUC0-last, Geometric LSM, Total Compound 1, single 450 mg, Normal Liver Function): 389 µg·h/mL
- Cmax ([1]; Cmax, Geometric LSM, Total Compound 1, single 450 mg, Moderate Hepatic Impairment): 52 µg/mL
- Cmax ([1]; Cmax, Geometric LSM, Total Compound 1, single 450 mg, Normal Liver Function): 50 µg/mL
- Vd/F ([1]; Volume of distribution (Vd/F), Unbound Compound 1, single 450 mg, Moderate Hepatic Impairment, mean ± SD): 1490 ± 542 L
- Vd/F ([1]; Volume of distribution (Vd/F), Unbound Compound 1, single 450 mg, Normal Liver Function, mean ± SD): 1330 ± 222 L
- AUC(0-inf) ([1]; single 450 mg, Moderate Hepatic Impairment, mean ± SD, read-out: AUC0-inf, plasma, total): 436 ± 156 µg·h/mL
- AUC(0-t) ([1]; single 450 mg, Moderate Hepatic Impairment, mean ± SD, read-out: AUC0-last, plasma, total): 432 ± 153 µg·h/mL
- Cmax ([1]; single 450 mg, Moderate Hepatic Impairment, mean ± SD, read-out: Cmax, plasma, total): 53 ± 12 µg/mL
- half-life [1, 3]: 7.8 h
- Vd/F ([1]; single 450 mg, Moderate Hepatic Impairment, mean ± SD, read-out: Volume of distribution (Vd/F), total): 12.3 ± 4 L
- Tmax [1, 4]: 2 h
- AUC(0-inf) ([1]; single 450 mg, Normal Liver Function, mean ± SD, read-out: AUC0-inf, plasma, total): 397 ± 72 µg·h/mL
- AUC(0-t) ([1]; single 450 mg, Normal Liver Function, mean ± SD, read-out: AUC0-last, plasma, total): 395 ± 72 µg·h/mL
- Cmax ([1]; single 450 mg, Normal Liver Function, mean ± SD, read-out: Cmax, plasma, total): 53 ± 15 µg/mL
- half-life [1, 5]: 5.8 h
- Vd/F ([1]; single 450 mg, Normal Liver Function, mean ± SD, read-out: Volume of distribution (Vd/F), total): 9.6 ± 1.9 L
- Tmax [1, 6]: 2.5 h
- CL renal [1, 4]: 0.105 mL/min
- CL renal [1, 6]: 0.122 mL/min
- impact of moderate hepatic impairment on total systemic exposure ([1]; single 450 mg): no significant impact on total systemic exposure
- AUC0-inf, Geometric LSM, Unbound Compound 1 [1, 4]: 3.47 µg·h/mL
- AUC0-last, Geometric LSM, Unbound Compound 1 [1, 4]: 3.44 µg·h/mL
- Ae0-72, cumulative amount excreted in urine up to 72 hours [1, 4]: 2.45 ± 1.611 mg
- Cmax, Geometric LSM, Unbound Compound 1 [1, 4]: 0.433 µg/mL
- Fe%0-72, cumulative fraction excreted in urine [1, 4]: 0.545% and 0.545 ± 0.3580%
- AUC0-inf, Unbound Compound 1 [1, 3]: 3.78 ± 1.738 µg·h/mL
- AUC0-last, Unbound Compound 1 [1, 3]: 3.75 ± 1.709 µg·h/mL
- Clearance (CL/F), Unbound Compound 1 [1, 3]: 140 ± 56.02 L/h
- Clearance (CL/F), total [1, 3]: 1.2 ± 0.4 L/h
- Cmax, Unbound Compound 1 [1, 3]: 0.451 ± 0.1332 µg/mL
- Elimination Half-life (t1/2) [1, 3]: 7.75 ± 2.5 h
- AUC0-inf, Geometric LSM, Unbound Compound 1 [1, 6]: 2.79 µg·h/mL
- AUC0-last, Geometric LSM, Unbound Compound 1 [1, 6]: 2.78 µg·h/mL
- Ae0-72, cumulative amount excreted in urine up to 72 hours [1, 6]: 2.76 ± 1.214 mg
- Cmax, Geometric LSM, Unbound Compound 1 [1, 6]: 0.360 µg/mL
- Fe%0-72, cumulative fraction excreted in urine [1, 6]: 0.614% and 0.614 ± 0.2698%
- AUC0-inf, Unbound Compound 1 [1, 5]: 2.91 ± 0.9049 µg·h/mL
- AUC0-last, Unbound Compound 1 [1, 5]: 2.90 ± 0.9001 µg·h/mL
- Clearance (CL/F), Unbound Compound 1 [1, 5]: 167 ± 49.10 L/h
- Clearance (CL/F), total [1, 5]: 1.2 ± 0.3 L/h
- Cmax, Unbound Compound 1 [1, 5]: 0.378 ± 0.1131 µg/mL
- Elimination Half-life (t1/2) [1, 5]: 5.81 ± 1.4 h
- serious AEs ([1]; single 450 mg, both groups): No serious AEs
- dose excreted in the urine as Compound 1 ([1]; single 450 mg, both moderate hepatic impairment and normal hepatic function): < 1%
- AUC(0-inf) [2, 7]: 351 ± 101 µg·h/mL
- Cmax [2, 7]: 46.3 ± 12.2 µg/mL
- Tmax ([2]; After Meal, healthy adult males, read-out: tmax): 3.52 h
- AUC(0-inf) ([2]; Fasting, healthy adult males): 371 ± 100 µg·h/mL
- Cmax ([2]; Fasting, healthy adult males): 63.1 ± 14.6 µg/mL
- Tmax ([2]; Fasting, healthy adult males, read-out: tmax): 2 h
- Tmax ([2]; compared with fasting, read-out: prolongation of median tmax by postprandial administration): ~1.5 h
